The values that follow come from patent US9549941B2, “Compositions and methods for treating hepatitis C virus” (priority 2011, dated 2017).

A short description of data set [1]: Moisture sorption of GS-7977 Form 6. It counts as physicochemical. The text has this: (§1) In one aspect, the disclosed composition comprises polymorphic Form 6 of GS-7977.
Data set [2] in a line: Chemical stability of GS-7977 Form 6 on open storage. The class given is physicochemical. Conditions: opened conditions at 40° C./75% RH for 30 days.
Description: as §1

The subject of data set [3] is Hepatitis C virus. Conditions: ribavirin alone, patients with CHC; cited from earlier work.
Data set [4] has as its system 1a-H77 sub-genomic replicon, wild-type NS5B. Kind of data set: Transient replicon assay. The class given is cell-based. Conditions: Hepatitis C virus, read-out: EC50 WT. The protocol:
(§2) (Lam et al., J. Virology (2011) 85(23): 12334-12342; Lam et al., Antimicrob. Agents Chemother. (2012) 56(6): 3359-3368.) S282T mutations in NS5B were created by site-directed mutagenesis in 1a-H77, 1b con-1, and 2a JFH1 sub-genomic replicons. 1b con-1-based chimeric replicons containing 2b, 3a, 4a, 5a, or 6a NS5B were also engineered to harbor the S282T mutation. […] Relative percentages of mutant and WT were assessed by deep sequencing.

The test system of data set [5] is 1b con-1-based chimeric replicon containing 6a NS5B, wild-type. Kind of data set: Transient replicon assay. It counts as cell-based. The note with it: Hepatitis C virus, read-out: EC50 WT. On the procedure:
as §2
(In general: A replicon is a self-replicating genome or part of one, used to study replication in cells.)

The subject of data set [6] is 1b con-1-based chimeric replicon containing 5a NS5B, wild-type. Nature of the data set: Transient replicon assay. It counts as cell-based. The note with it: Hepatitis C virus, read-out: EC50 WT. The protocol: as §2
The subject of data set [7] is 1a-H77 sub-genomic replicon, NS5B S282T. Kind of data set: microbe, parasite or virus in culture. The class given is cell-based, hepatitis C virus. The note with it: Hepatitis C virus, read-out: EC50 S282T. On the procedure: as §2
Data set [8] relates to mixture of 50% S282T and 50% WT in GT2a replicons. Kind of data set: Long-term passaging study with deep sequencing. It counts as cell-based, hepatitis C virus. The note with it: after fifteen days. The text has this:
In vitro studies have shown that S282T is the primary mutation selected by GS-7977 in HCV genotype 1a, 1b and 2a replicon cells. (Lam et al., J. Virology (2011) 85(23): 12334-12342; Lam et al., Antimicrob. Agents Chemother. (2012) 56(6): 3359-3368.) S282T mutations in NS5B were created by site-directed mutagenesis in 1a-H77, 1b con-1, and 2a JFH1 sub-genomic replicons. 1b con-1-based chimeric replicons containing 2b, 3a, 4a, 5a, or 6a NS5B were also engineered to harbor the S282T mutation. […] Relative percentages of mutant and WT were assessed by deep sequencing.
(See also Han et al., 63rd Annual Meeting of the American Association for the Study of Liver Diseases, Poster 1078, Nov. 11, 2012.)

Consider `CC(C)OC(=O)[C@H](C)N[P@](=O)(OC[C@H]1O[C@@H](n2ccc(=O)[nH]c2=O)[C@](C)(F)[C@@H]1O)Oc1ccccc1` [Form 6], for which the hygroscopicity result in data set [1] is “not hygroscopic”. In addition, the moisture sorption entry in data set [1] (room temperature and 90% RH) is “less than 0.2%”. Besides, the chemical stability result in data set [2] is recorded as “chemically stable”.

For the compound `NC(=O)c1ncn([C@@H]2O[C@H](CO)[C@@H](O)[C@H]2O)n1` [Ribavirin, 1-β-D-ribofuranosyl-1H-1,2,4-triazole-3-carboxamide, reference compound], in data set [3], the “effect on HCV RNA levels” value is “did not reduce HCV RNA levels during or after therapy”. Also, the EC50 – broadly, the concentration that produces a half-maximal response – in data set [4] worked out at 21 nM; in data set [5], 5.3 nM; in data set [6], 1.9 nM; in data set [7], 5 nM. Besides, the “population WT” value in data set [8] came out at 96%.
